# Results as given in patent US5086053A, “Derivatives of 1,3,4-thiadiazole, a method of obtaining them and pharmaceutical compositions containing them” (Sanofi, priority 1988, dated 1992).
# pIC50: −log10 of the molar value. Counter-ions that a name gives are not always drawn. Like-named read-outs stand apart in the source and are kept apart here.
# Tests used:
# [1] = biological target: T1, type M1 muscarinic cholinergic receptor (Rattus norvegicus, UniProt P08482); assay: biochemical; format: binding; details: for ratio R between the IC50 for receptors M1 and M2 (selectivity): values correspond to IC50 3H-NMS (M2) / IC50 3H-PZ (M1)
# T1 sequence (P08482 1-460): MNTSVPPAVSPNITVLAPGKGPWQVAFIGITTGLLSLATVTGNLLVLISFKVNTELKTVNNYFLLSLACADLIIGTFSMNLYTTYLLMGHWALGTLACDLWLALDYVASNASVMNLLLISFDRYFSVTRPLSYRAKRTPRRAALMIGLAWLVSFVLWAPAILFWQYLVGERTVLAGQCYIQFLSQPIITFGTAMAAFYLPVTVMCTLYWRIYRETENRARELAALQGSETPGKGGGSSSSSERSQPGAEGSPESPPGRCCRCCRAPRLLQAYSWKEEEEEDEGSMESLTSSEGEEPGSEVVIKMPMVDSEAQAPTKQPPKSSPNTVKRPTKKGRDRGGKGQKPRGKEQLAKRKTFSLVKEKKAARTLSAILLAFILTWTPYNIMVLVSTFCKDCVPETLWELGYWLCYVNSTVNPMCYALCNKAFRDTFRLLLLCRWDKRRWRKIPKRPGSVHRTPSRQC
# Protocol: a) Search for an affinity for the type M1 muscarinic cholinergic receptor
# The interaction of molecules with type M1 muscarinic receptors was studied in vitro on homogenized rat hippocampus, by studying the displacement of tritiated pirenzepine form its specific tagging sites. 10 μl portions of homogenized rat hippocampus (5% w/v) in an Na2 HPO4 buffer (50 mM, pH 7.40) were incubated at 4° C. for 2 hours in the presence of ^3 H--Pz (76 Ci/mmol/l nM final), with increasing concentrations of the product under study. The final volume was 2 ml. The reaction was stopped by centrifuging for 10 minutes at 50 000 g. After decantation and washing of the bottoms, the tagged radioactivity was counted by liquid scintillation. Non-specific tagging was determined in the presence of 10 μM of atropine sulphate. The 50 inhibiting concentration (IC50) was determined graphically.
# [2] = test system: M1 central muscarinic cholinergic receptors; assay: Antagonism to rotatory behaviour induced by intrastriatal injection of pirenzepine in the mouse; format: in vivo, mouse (female, Swiss, CD 1); details: for change in vivo at 3 mg/kg: Mus musculus, po, read-out: % inhibition of pirenzepine-induced rotations
# Protocol: Intrastriatal injection of PZ into the mouse induces rotatory behaviour. Antagonism to this behaviour by the products according to the invention was studied.
# The products according to the invention were administered in doses of 0.3 or 3 mg/kg orally after being solubilized in distilled water or suspended in a 5% solution of gum arabic. The controls were given pure solvent under the same conditions.
# The animals used were female mice (Swiss, CD 1, Charles River, France), body weight between 25 and 30 grams.
# Pirenzepine was dissolved in a phosphate buffer, the pH of the solution being 6.
# The products under study or solvents thereof were orally administered, using a probang, in a volume of 0.4 ml per 20 g body weight.
# The number of contralateral rotations (in the opposite direction to the side of the injection) was counted for three 2-minute periods after injection of pirenzepine (minutes 2-4, 8-10 and 13-15) and was then totalled for each animal. Each treatment comprised three to four doses and ten animals per dose. For each treatment, the total number of rotations and the percentage inhibition relative to the control batch (solvent) was calculated.
# [3] = biological target: T2, type M2 muscarinic cholinergic receptor (Cavia porcellus, UniProt H0VRN8); assay: Affinity for type M2 muscarinic cholinergic receptor: displacement of tritiated N-methylscopolamine (3H-NMS) on homogenized smooth muscle of guinea-pig ileum; format: binding; details: displacement of 3H-NMS, 30° C., 20 minutes
# T2 construct: studies in vitro on homogenized smooth muscle of guinea-pig ileum; from tissue; host or cells: guinea-pig ileum smooth muscle homogenate
# T2 sequence (H0VRN8 1-466): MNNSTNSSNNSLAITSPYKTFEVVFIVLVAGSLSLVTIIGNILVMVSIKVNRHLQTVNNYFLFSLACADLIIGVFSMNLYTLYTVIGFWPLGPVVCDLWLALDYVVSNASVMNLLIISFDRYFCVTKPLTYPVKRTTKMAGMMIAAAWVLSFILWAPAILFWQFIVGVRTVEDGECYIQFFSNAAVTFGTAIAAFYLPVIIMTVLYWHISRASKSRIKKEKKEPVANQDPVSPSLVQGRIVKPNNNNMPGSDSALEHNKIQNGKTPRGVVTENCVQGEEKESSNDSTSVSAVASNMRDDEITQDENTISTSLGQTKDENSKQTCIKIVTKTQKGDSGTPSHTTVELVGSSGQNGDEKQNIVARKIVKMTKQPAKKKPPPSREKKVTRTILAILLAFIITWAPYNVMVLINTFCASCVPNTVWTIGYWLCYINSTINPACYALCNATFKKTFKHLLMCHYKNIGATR
# Text: BIOCHEMICAL STUDY IN VITRO
# M1 type receptors are concentrated in certain zones of the brain such as the hippocampus, the cerebral cortex, the corpus striatum and the sympathetic ganglia. These connection sites can be selectively tagged with tritiated pirenzepine (^3 H--PZ). Type M2 receptors predominate in the heart and the ileum and can be tagged with tritiated N-methylscopolamine (^3 H--NMS). In order to determine the selectivity of the products according to the invention, with regard to sites M1 and M2, a study was made of their interaction in vitro, with high-affinity tagging with ^3 H--PZ and ^3 H--NMS, on rat hippocampus membranes and smooth muscle from guinea-pig ileum respectively.
# b) Search for an affinity for the type M2 muscarinic cholinergic receptor
# Interaction with type M2 muscarinic receptors was studies in vitro on homogenized smooth muscle of guinea-pig ileum by measuring the displacement of tritiated N-methyl-scopolamine from its specific tagging sites. 50 μl portions of homogenized smooth muscle form guinea-pig ileum (0.625% w/v) in 20 mM of HEPES buffer: 2-((2-hydroxy 4-ethyl) piperazin-1-yl) ethanesulphonic acid containing NaCl (100 mM) and Mg Cl2 (10 mM) (final pH=7.5) were incubated at 30° C. for 20 minutes int eh presence of ^3 H--NMS (85 Ci/mmol/0.3 nM final) with increasing concentrations of the products under test. The final volume was 1 ml. The reaction was stopped by centrifuging for 5 minutes at 15000 g. Non-specific tagging was determined in the presence of […] of atropine sulphate.
# The results are expressed as 50% inhibiting concentrations (IC50), i.e. the concentration (in μM) which induces a 50% displacement of the tritiated ligand fixed to the membrane receptors. The IC50 displacement of ^3 H--PZ represents affinity for the M1 receptor, and
# The IC50 displacement of ^3 H--NMS represents affinity for the M2 receptor.
# [4] = Acute oral toxicity in mice; set-up: species or system Swiss, CD 1); details: mouse, in vivo, female mice, 24 hours after administration, read-out: 50% lethal dose (DL50)
# Protocol: The acute toxicity was determined for one product according to the invention: SR 45341 A. The product was orally administered in increasing doses to a batch of 10 female mice (Swiss, CD 1, Charles River, France), body weight 20 g.
# The death rate caused by the product under study was noted during the 24 hours after administration of the product. The 50% lethal dose (DL50) was determined, i.e. the dose which killed 50% of the animals.
# [5] = displacement of 3H-PZ, rat hippocampus homogenate, 4° C., 2 hours, read-out: IC50 3H-PZ (M1)
# [6] = 3 mg/kg p.o., 4 hours before pirenzepine 1 μg intrastriatal, *p<0.05, **p<0.01 Student's test
Structure (SMILES),"pIC50 [1, 5]",ratio R between the IC50 for receptors M1 and M2 (selectivity) [1],"change in vivo at 3 mg/kg [2, 6] [%]",pIC50 [3],further results
Clc1ccc(-c2nnc(NCCCN3CCCC3)s2)c(Cl)c1 [SR 45458 A],6.10,15,-28,4.92,–
"CN1CCC(N(C)c2nnc(-c3ccccc3)s2)CC1 [SR 44828 A, Dihydrochloride and hydrate of 2-[N-methyl N-(1-methyl 4-piperidyl)amino-5-phenyl-1,3,4-thiadiazole]",–,–,–,–,pIC50 [1]: 5.05; change in vivo at 3 mg/kg ([2]; 4 h): -26%
Clc1ccc(-c2nnc(NCc3cccnc3)s2)c(Cl)c1 [SR 45459 A],–,–,-29,–,–
Clc1ccc(-c2nnc(NCCc3ccccn3)s2)c(Cl)c1 [SR 45492 A],–,–,-50,–,–
"FC(F)(F)c1cccc(-c2nnc(NCCN3CCOCC3)s2)c1 [B, reference compound]",–,–,–,–,"% inhibition of pirenzepine-induced rotations ([2]; 0,3 mg/kg p.o., 4 hours before pirenzepine 1 μg intrastriatal, *p<0.05, **p<0.01 Student's test): Inactive; % inhibition of pirenzepine-induced rotations [2, 6]: Inactive"
CNCCCNc1nnc(-c2ccc(Cl)cc2Cl)s1 [SR 45479 A],4.85,5,–,4.15,–
Clc1ccc(-c2nnc(NCCCN3CCOCC3)s2)cc1 [SR 45520 A],5.35,17,-75,4.10,–
CCN(CC)CCCNc1nnc(-c2c(C)cc(C)cc2C)s1 [SR 45352 A],5.26,5,-32,4.52,–
Cc1cc(C)c(-c2nnc(NCc3cccnc3)s2)c(C)c1 [SR 45417 A],–,–,-43,–,–
CCN(CCCN(C)C)c1nnc(-c2ccc(F)cc2)s1 [SR 45483 A],5.62,8,-20,4.70,–
"CN1CCCC(CNc2nnc(-c3ccc(Cl)cc3)s2)C1 (centres unmarked) [SR 45491 A, 2-[(N-methyl 3-piperidyl)methylamino]-5-(4-chlorophenyl)-1,3,4-thiadiazoledihydrochloride]",–,–,-57,–,–
Clc1ccc(-c2nnc(NCCCn3ccnc3)s2)c(Cl)c1 [SR 45504 A],5.52,13,–,4.40,–
Clc1ccc(-c2nnc(NCc3cccnc3)s2)cc1 [SR 45488 A],–,–,-49,–,–
"c1ccc(-c2nnc(NCCN3CCOCC3)s2)cc1 [A, reference compound]",–,–,-8,–,–
Fc1ccc(-c2nnc(NCc3cccnc3)s2)cc1 [SR 45447 A],–,–,-62,–,–
"Cc1cc(C)c(-c2nnc(NCCCN(C)C)s2)c(C)c1.Cl.Cl [SR 45341 A, 2-(3-dimethylaminopropylamino)-5-(2,4,6-trimethylphenyl)-1,3,4 thiadiazole dihydrochloride]",6.35,160,-74,4.14,LD50 at 24 h [4]: > 300 mg/kg

Structure (SMILES),"pIC50 [1, 5]",ratio R between the IC50 for receptors M1 and M2 (selectivity) [1],"change in vivo at 3 mg/kg [2, 6] [%]",pIC50 [3],further results
CN(Cc1cccnc1)c1nnc(-c2ccc(F)cc2)s1 [SR 45530 A],–,–,-41,–,–
CN1CCCC1CCNc1nnc(-c2ccc(Cl)cc2Cl)s1 (centres unmarked) [SR 45490 A],–,–,-73,–,–
"CN(C)CCNc1nnc(-c2ccccc2)s1 [C, reference compound]",–,–,-12,–,–
"CCN(CC)CCCCNc1nnc(-c2ccccc2)s1 [SR 45339 A, Dihydrochloride of 2-(4-diethylaminobutylamino)-5-phenyl-1,3,4-thiadiazole]",5.30,7,-77,4.47,–
"CNC1CCN(c2nnc(-c3ccccc3)s2)CC1 [SR 44825 A, 2-(4-methylaminopiperidino)-5-phenyl-1,3,4-thiadiazole dihydrochloride]",–,–,–,4.10,–
CN(C)CCCNc1nnc(-c2ccc(Cl)cc2Cl)s1 [SR 45422 A],6.15,37,-50,4.59,–
CCN(CC)CCCNc1nnc(-c2ccc(Cl)cc2Cl)s1 [SR 45481 A],–,–,-67,–,–
CN(C)CCCNc1nnc(-c2ccc(F)cc2)s1 [SR 45421 A],–,–,-38,–,–
Clc1ccc(-c2nnc(NCCCn3ccnc3)s2)c(Cl)c1 [SR - A],–,–,-60,–,–
Cc1cc(C)c(-c2nnc(NCCCN(C)C)s2)c(C)c1Br [SR 45340 A],5.46,6,-95,4.57,–
CN(C)CCCNc1nnc(-c2ccc(Cl)cc2)s1 [SR 45480 A],5.35,11,-54,4.30,–
CN(C)CCCNc1nnc(-c2ccccc2)s1 [SR 44824 A],5.52,> 30,-27,< 4.00,–
CN1CCN(CCCNc2nnc(-c3ccc(Cl)cc3)s2)CC1 [SR 45489 A],5.44,7,-29,4.59,–
"CNCCCNc1nnc(-c2c(C)cc(C)cc2C)s1.Cl.Cl [SR 45418 A, 2-(3-methylaminopropylamino) 5-(2,4,6-trimethylphenyl) 1,3,4-thiadiazole dihydrochloride]",4.70,> 5,-77,< 4.00,–
Fc1ccc(-c2nnc(NCc3ccncc3)s2)cc1 [SR 45482 A],–,–,-53,–,–
